Square brackets hold non-standard residues; d marks the D form. Peptide text beside a SMILES is read from it. Gly(N(CH2)2(3-indolyl)) = O=C(O)CNCCc1c[nH]c2ccccc12; Nspe = C[C@H](NCC(=O)O)c1ccccc1; Nlys = NCCCCNCC(=O)O

From publication PMC10460844, “Real‐Time Monitoring of Multitarget Antimicrobial Mechanisms of Peptoids Using Label‐Free Imaging with Optical Diffraction Tomography” (Advanced Science, 2023) come the findings set out here.

Common to all, as to format: cell-based
One series has as its system P. aeruginosa MDR-198.
Series [1] has as its system HaCaT human keratinocytes. In words: MTS cytotoxicity assay. The conditions noted are these: 24 h exposure in DMEM, concentration killing 50% of cells. As to the method:
4. Cell culture and cytotoxicity test using MTS assay
(Seoul, South Korea), human keratinocytes (HaCaT) were provided by the Skin Research Institute R&D Center of Amore Pacific Company (Yongin, South Korea). All cells were grown in Dulbecco's modified Eagle’s medium (DMEM) supplemented with 10% fetal bovine serum at 37 °C in an atmosphere containing 5% CO2. The 3-(4,5-dimethylthiazol-2- […]
assays were used to determine the effects of peptoids on cell growth.[4] Aliquots (100 µL) of media containing 1.3×10^4 MRC-5 cells/mL or 3×10^4 HaCaT cells/mL were distributed into each well of a 96-well plate (Eppendorf, Hamburg, Germany). The cells were allowed to attach and were grown in a humidified atmosphere containing 5% CO2 at 37 °C for 24 h.
When the cell density reached approximately 70% confluency, the medium was replaced with serial dilutions of the peptoid stock in DMEM and incubated for an additional 24 h. […] The MTS-formazan products in viable cells were measured at 490 nm using a microplate reader, and the percentage of cell viability (%) was calculated by comparing readings to the values of untreated wells. Percentage values of cell viability were calculated as A/(A control)×100, where A is the absorbance of the test well and A control is the average absorbance of wells containing untreated cells. […]
For orientation: Tetrazolium dyes change colour on reduction, which living cells bring about.

In series [2] the test system is E. coli ATCC 25922. The conditions noted are these: ODT, 30 min treatment; buforin-II 25 µM, melittin 25 µM, 29 4 × MIC. As to the method:
Three‐dimensional (3D) optical diffraction tomography (ODT) and fluorescence images of live bacterial cells were obtained using an HT‐2H Mach−Zehnder interferometric microscope, combining both ODT and fluorescence imaging into a single unit (Tomocube, Daejon, South Korea). 3D Fluorescence imaging was carried out, using three light sources (385, 470, and 565 nm) via serial fluorescence image acquisition in multiple planes followed by 3D deconvolution. 3D correlative imaging, using a combination of ODT and fluorescence imaging was performed using commercial software (TomoStudioTM, Tomocube) as described previously^[ [23c] ^] Bacterial cells were grown overnight and diluted (≈10^7 CFU mL^−1) in cation‐adjusted MHB2 media. The cells were loaded onto 50 mm imaging dishes with a #1.5H glass coverslip bottom (TomoDish, Tomocube) that were precoated with 0.01% (w/v) poly‐L‐lysine (Sigma‐Aldrich) in water. After 30 min incubation at room temperature, the coverslips were washed twice with PBS (pH 7.4) to remove unattached cells, and the media was replaced with PBS for the duration of the imaging. To monitor the change in bacterial morphology, bacterial cells were treated with a peptoid (or with control AMPs) in PBS containing FM4‐64 (10 µg mL^−1) or propidium iodide (10 µg mL^−1). To analyze 3D refractive index (RI) tomograms, individual bacteria were captured using ODT equipped with a digital micromirror device (Tomocube). In more detail, the light scattered by the bacterial cells was collected by an objective lens (NA = 1.2, water dipping, UPLSAPO 60XW, Olympus) and recorded by a digital image sensor (CMOS camera, FL3‐U313Y3M‐C, FLIR Systems). Using a field retrieval algorithm, the amplitude and phase images were retrieved from the obtained multiple holograms, and then the 3D RI distribution was determined.
The analysis tool in the TomoStudio software (Tomocube) was used to measure specific values, including the refractive index (RI) and the cell volume of bacteria. These values were determined from RI increments (RII) of 0.190 fL pg^−1, which is known as a representative value and was assumed to be the same for most proteins.^[ [46] ^]

Series [3] deals with E. coli ATCC 25922. In words: Killing kinetics. The conditions noted are these: 4 × MIC, E. coli ATCC 25922, MHB2, 37 °C, CFU counting, triplicates. As to the method: structure of peptoids. SAXS data on peptoids in aqueous environment at different peptoid concentrations (indicated in legends), plotted together with best fit. a) 11 b) 29.
14. In vitro biological assays
The kinetics of antimicrobial activity against E. coli (ATCC 25922) were assessed at a […]
Briefly, an overnight culture of bacteria was diluted at mid log-phase bacteria (2–5 × 10^5 cfu/mL) and incubated with peptoid with desired concentration in MHB2. The bacterial suspension was added to a 96-well polypropylene u- bottomed plate containing the peptoid. The plate was incubated without shaking at 37 °C for 4 h. Samples (20 μl) were taken at time 0.5, 1, 2 and 4 h and diluted in ice PBS buffer from which 100 μl was plated on LB agar plates. The plates were incubated for 18–24 hours at 37 °C and colony forming units (CFU) were counted. The experiment was conducted triplicates, and a curve was plotted between CFU and time (h).
The ability of peptoids to increase the permeability of the outer membrane of Gram-negative bacteria was determined by measuring the incorporation of the NPN fluorescent dye into the outer membrane of E. coli ATCC 25922. Bacterial cells were suspended to a final concentration of OD600 = 0.05 in 5 mM HEPES buffer, pH 7.2, containing 5 mM KCN. Then […]
(1 picture or pasted object on this page, not shown here)

With `C[C@@H](c1ccccc1)N(CC(=O)N(CCCCN)CC(=O)N(CC(=O)N(CC(=O)N(CCCCN)CC(=O)N(CC(=O)N(CC(=O)N(CCCCN)CC(=O)N(CCc1c[nH]c2ccccc12)CC(=O)N(CCc1c[nH]c2ccccc12)CC(N)=O)[C@@H](C)c1ccccc1)[C@@H](C)c1ccccc1)[C@@H](C)c1ccccc1)[C@@H](C)c1ccccc1)C(=O)CN(C(=O)CNCCCCN)[C@@H](C)c1ccccc1` [peptoid 11] (H-[Nlys][Nspe][Nspe][Nlys][Nspe][Nspe][Nlys][Nspe][Nspe][Nlys][Gly(N(CH2)2(3-indolyl))][Gly(N(CH2)2(3-indolyl))]-NH2), the “MIC P. aeruginosa MDR-198” value against P. aeruginosa MDR-198 was in the range of 6.3 to 12.5 µM.
For the molecule `C[C@@H](c1ccccc1)N(CC(N)=O)C(=O)CN(C(=O)CN(CCCCN)C(=O)CN(C(=O)CN(C(=O)CN(CCCCN)C(=O)CN(C(=O)CN(C(=O)CN(CCCCN)C(=O)CN(C(=O)CN(C(=O)CNCCCCN)[C@@H](C)c1ccccc1)[C@@H](C)c1ccccc1)[C@@H](C)c1ccccc1)[C@@H](C)c1ccccc1)[C@@H](C)c1ccccc1)[C@@H](C)c1ccccc1)[C@@H](C)c1ccccc1` [peptoid 1, reference compound] (H-[Nlys][Nspe][Nspe][Nlys][Nspe][Nspe][Nlys][Nspe][Nspe][Nlys][Nspe][Nspe]-NH2), the “LC50 HaCaT” value in series [1] was 7.3 µM.
Take `C[C@@H](c1ccccc1)N(CC(=O)N(CCCCN)CC(=O)N(CCc1c[nH]c2ccccc12)CC(=O)N(CCc1c[nH]c2ccccc12)CC(N)=O)C(=O)CN(CCCCN)C(=O)CN(CCCCN)C(=O)CN(C(=O)CN(C(=O)CN(CCCCN)C(=O)CN(C(=O)CN(C(=O)CNCCCCN)[C@@H](C)c1ccccc1)[C@@H](C)c1ccccc1)[C@@H](C)c1ccccc1)[C@@H](C)c1ccccc1` [peptoid 29] (H-[Nlys][Nspe][Nspe][Nlys][Nspe][Nspe][Nlys][Nlys][Nspe][Nlys][Gly(N(CH2)2(3-indolyl))][Gly(N(CH2)2(3-indolyl))]-NH2): in the series on E. coli ATCC 25922 [2], the “change of cell volume” value is “notable reduction in cell volume” and the “change of mean RI value versus control cells” value is reported as “significantly increased mean RI values”. Further, the “time to complete eradication of bacteria” value in the series on E. coli ATCC 25922 [3] is given as 4 h. Moreover, the “MIC P. aeruginosa MDR-198” value against P. aeruginosa MDR-198 was 6.3 to 12.5 µM.
